The text below walks through data of patent US20180372720A1, “STABLE ISOTOPE LABELING KINETICS - SECONDARY ION MASS SPECTROMETRY (SILK SIMS) AND METHODS OF USE THEREOF” (Washington University, priority 2017, published 2018).

Data set [1] concerns Aβ plaques. The settings on record: in vivo.
Description: Human cortical tissue samples were obtained from the Charles F. and Joanne Knight Alzheimer's Disease Research Center (ADRC) at Washington University School of Medicine in Saint Louis, Mo. Cognitive status was determined with a validated retrospective postmortem interview with an informant to establish the Clinical Dementia Rating (CDR). […] At autopsy, the left hemisphere was fixed in 10% neutral buffered formalin and stored at room temperature until further preparation.
Blocks were polymerized at 80° C. for 72 hrs. Tissue blocks were sectioned using a diamond ultrathin section knife on a Reichert Ultra-Cut E ultramicrotome at 300-500 nm thick. […]
Each analysis was performed in 24-hour blocks with measurements on SiC standard to assess instrument stability followed by measurements on an un-labeled control prior to SILK-SIMS data acquisition. Raw image data was imported into custom, in-house particle definition software, L'Image, to produce quantitative mass images of heavy and light isotopes, and determine where any isotopic anomalies may be located. The fractional uncertainty, f, of the heavy/light isotope ratios in each region-of-interest (ROI) was calculated in Excel as the sum in quadrature of the standard deviation of the average ratios measured for non-labeled material, σStd, and the Poisson errors, σROI, of the ROI itself, as given by the equation […]
Data set [2] has as its system Aβ proteoforms. The conditions noted are these: Pt2, 8 days between labeling and expiration.
Description: 1 g of frontal lobe tissue was homogenized in ice-cold 1×PBS with 0.05% CHAPS and centrifuged at 17,000×g for 30 min at 4° C. as previously described^4. The supernatant was spun for 1 hr at 100,000×g at 4° C. and the resulting pellet solubilize in 5 M guanidine overnight at 4° C. with rotation. Next, samples were spun for 20 min at 17,000×g at 4° C. and the supernatant was diluted 1:10 in 1×PBS in BSA-block tubes as previously described^4. Samples were immunoprecipitated (IP) with 50 uL of HJ5.1 anti-Aβ antibody (mid-domain epitope) coupled Dynabeads (Catalog #14311 D, Invitrogen, Carlsbad, Calif.) made following the manufacturer's instructions. After overnight incubation at 4° C. IPs were eluted in neat formic acid and dried in vacuo. Samples were resuspended in 50 mM TEABC (Catalog #17902, Sigma, St. Louis, Mo.), spiked with ^15N-Aβ internal standard, and digested overnight with 0.25 ng/μL Lys-N(Catalog #100965-1, Seikagaku Biobusiness Corp., Tokyo, Japan) at 4° C.
Samples were resuspended in 1% FA/10% ACN (v/v) with 20 nM BSA digest (Catalog #1863078, Pierce, Rockford, Ill.). Samples were analyzed in triplicate by nanoLC-MS/MS on an LTQ-Orbitrap Fusion (Thermo Fisher Scientific) in positive ion mode. Separations were performed using an online NanoAcquity UPLC (Waters, Milford, Mass.) using an ACQUITY UPLC HSS T3 (360 μm OD×75 μm ID) column packed with 10 cm C18 (1.8 μm, 100 Å, Waters) at 300 nL/min and heated to 65° C. Mobile phases were 0.1% FA in water (A) and 0.1% FA in ACN (B). Samples were eluted from the column with the gradient starting at 12% B, which was ramped to 32% B over 10 min and further increased to 90% B over 5 min and held for 1 min, before re-equilibration to 12% B over 2 min. Total run time, including column equilibration, sample loading, and analysis was 30 min. The mass spectrometer was operated in targeted MS2 mode. MS2 spectra were acquired in the Orbitrap (30,000 at m/z 400) in centroid mode using XCalibur, version 4.0 (Thermo Fisher Scientific). Ion injection times for the targeted MS2 scans for labeled and unlabeled respectively (in ms) were: Aβ mid-domain (54, 1080), Aβ40 (54, 540), and Aβ42 (54, 1080). The Orbitrap automatic gain control targets were set 5×10^5 for all proteoforms except Aβ42, which was set to 1×10^6. The targeted precursor ions were sequentially isolated in the quadrupole and fragmented in the Orbitrap using HCD (isolation width 1.6 Da, normalized collision energy 25%, activation Q 0.250, and activation time 10 ms). […]
Data (.raw files) were imported into a Skyline template containing the Lys-N C-terminal peptides of Aβ8, 40, 42 and the mid-domain. […] The sum of all transitions (b ions monitored for each parent peptide) were summed for unlabeled and SILK Aβ peptides and exported from Skyline to Excel. […]
For data set [3] the following is noted: mouse, in vivo.
Description: Mouse whole blood was spun at 1,000×g for 10 min and the plasma (supernatant) removed. Plasma proteins were precipitated with ice-cold acetone followed by de-lipidation with hexane and the aqueous fraction was dried in vacuo^1. 1:1 MTBSTFA/acetonitrile was added and samples were incubated 70° C. for 30 min. Duplicate 1 μL injections were made into an Agilent 5973 MSD mass spectrometer using a 30 μm×0.25 mm DB-5MS column (Agilent Technologies). […] The molar fraction of labeled leucine was calculated as: MFL=TTR/(1+TTR).
For data set [4], the system named is amyloid-β plaques. The settings on record: mouse, in vivo. The procedure: To assess the feasibility of detecting ^13C6-leucine isotopic enrichment in native amyloid-β plaques, tracer was administered to APP/PS1 mice at 3.5 months of age (pre-plaque pathology) for 10 and 5 weeks (FIG. 2A).
Two male double transgenic mice expressing chimeric mouse/human amyloid precursor protein (Mo/HuAPP695swe) and a mutant human presenilin 1 (PS1-dE9) both directed to CNS neurons (stock 34832-JAX) were kindly provide by Dr. Timothy Miller. Animals were given leucine-free chow (Catalog #1831936, Test Diet, St. Louis, Mo.) with 5 mg/mL ^12C6-leucine added to 2% sucrose-containing drinking water to control leucine intake for a one week acclimation period. After the one-week acclimation period, animals were given 5 mg/mL ^13C6- or ^12C6-leucine orally via 2% sucrose drinking water, averaging 36 mL of H2O/week (FIG. 2). Animals were 4 months old at the time of labeling and 6.5 months old at the end of labeling. Following the end of the labeling paradigm, animals were anesthetized with 65 mg/kg pentobarbital sodium and sacrificed by decapitation. Brains were removed and placed in 10% neutral-buffer formalin (Catalog #15740-01, EMS, Hatfield, Pa.). All animal procedures were conducted in accordance with the Washington University Animal Studies Committee, and are consistent with the National Institutes of Health (NIH) guidelines for the care and use of animals. Pieces of mouse brain were washed into NaHCa and incubated overnight at 4° C. The following morning, samples were stained with 1% osmium/NaHCa for 1 hour, washed 4 times over 1 hour and then en bloc stained with 1% uranyl acetate/H2O for 1 hour in the dark. Samples were rinsed with 3 exchanges of water, 10 minutes each and then processed for LR White embedding as described above with the addition of being gold-coated once on the Si wafer. Serial adjacent sections were place on glass microscope slides for toluidine blue staining for light microscopy.
Data was acquired on either a Cameca NanoSIMS 50 at WASHU (cells and human tissue) or NanoSIMS 50 L at Brigham and Women's Hospital (mouse tissue). Images of the B-cell hybridoma used to calculate that ^13C6-leucine standard curve were acquired at a 50 μm raster for 15 minutes at 1 ms/px and 65.5 s/plane (dwell time) for a total of 10 planes (i.e., cycles) per mass (256×256 px). APP/PS1 mouse brain tissue was acquired at a 17-60 μm raster for 11-87 minutes at 2 ms/px and 131 s/plane (dwell time) for a total of 5-40 cycles (i.e., planes) per mass (256×256 px).
Each analysis was performed in 24-hour blocks with measurements on SiC standard to assess instrument stability followed by measurements on an un-labeled control prior to SILK-SIMS data acquisition. Raw image data was imported into custom, in-house particle definition software, L'Image, to produce quantitative mass images of heavy and light isotopes, and determine where any isotopic anomalies may be located. The fractional uncertainty, f, of the heavy/light isotope ratios in each region-of-interest (ROI) was calculated in Excel as the sum in quadrature of the standard deviation of the average ratios measured for non-labeled material, σStd, and the Poisson errors, σROI, of the ROI itself, as given by the equation

`CC(C)C[C@H](N)C(=O)O` [^13C6-leucine]: in data set [1], the “increase above the natural abundance of ^13C/^12C” value was 18% and the “mean ratio of ^13C^14N−/^12C^14N−” value is given as 1.31%±0.05. In data set [2], the “detection of labeled Aβx-38” value is listed as “unable detect”; the “enrichment above isotopic background, Aβ mid-domain” value was determined as 0.053%; the “enrichment above isotopic background, Aβx-40” value stood at 0.112%; the “enrichment above isotopic background, Aβx-42” value was determined as 0.022%. Moreover, the “Average Mol fraction labeled” value in data set [3] was 72.02%. Moreover, in data set [4], the “normalized tracer enrichment ratio” value was 0.015±2.22×10^−4 and the “raw tracer enrichment ratio” value is recorded as 0.015±1.56×10^−5. In data set [4] (po), the “^13C/^12C isotope ratio” value worked out at 2.7%, the “^13C/^12C ratio” value was 3.7%, the “normalized ^13C^14N−/^12C^14N− ratio” value is recorded as 0.024±3.43×10^−4 and the “raw ^13C^14N−/^12C^14N− ratio” value was 0.023±1.41×10^−5.
